{"source": "patent US20250197407A1", "about": "(Jazz Pharmaceuticals Ireland Limited, priority 2022, published 2025)"}
{"biological_target": "SOS1/KRAS WT (Homo sapiens (Human), UniProt Q07889)", "sequence (Q07889 564-1049)": "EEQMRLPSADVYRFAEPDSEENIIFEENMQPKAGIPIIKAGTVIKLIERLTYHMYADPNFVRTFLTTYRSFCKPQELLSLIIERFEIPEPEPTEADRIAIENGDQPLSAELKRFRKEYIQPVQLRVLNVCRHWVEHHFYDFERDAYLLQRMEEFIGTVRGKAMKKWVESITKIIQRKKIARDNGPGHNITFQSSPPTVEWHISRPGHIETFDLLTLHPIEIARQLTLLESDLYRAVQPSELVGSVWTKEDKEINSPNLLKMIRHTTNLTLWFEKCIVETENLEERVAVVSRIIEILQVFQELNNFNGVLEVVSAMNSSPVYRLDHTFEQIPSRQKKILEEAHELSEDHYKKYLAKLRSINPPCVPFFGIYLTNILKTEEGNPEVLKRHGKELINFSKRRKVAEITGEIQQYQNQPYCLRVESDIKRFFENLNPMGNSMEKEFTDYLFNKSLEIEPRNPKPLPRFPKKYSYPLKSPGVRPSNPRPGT", "experiment": "SOS1/KRAS WT HTRF binding assay (FRET-based protein-protein interaction)", "settings": "inhibition of His6-SOS1 (aa564-1049, 40 nM) binding to GST-KRAS-WT (aa1-188, 40 nM); at least two independent replicates; read-out: SOS1/KRAS WT HTRF Binding assay pIC50 (converted)", "how_it_was_run": "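GST-KRAS WT (aa1-188, 40 nM) and His6-SOS1 exchange domain (aa564-1049, 40 nM) were incubated 60 min at room temperature with compound dose response in HEPES pH7.3 buffer with 10 mM EDTA and 100 mM KF. Anti-GST-Eu(K)/anti-6His-XL665 HTRF was read after 4 hr, and IC50 came from a four-parameter fit (≥2 replicates).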", "units": {"IC50": "nM"}}
{"smiles": "Cc1c(C(F)F)cccc1[C@@H](C)Nc1nnc(C)c2cc3c(cc12)n(C)c(=O)n3C", "note": "[Compound 211, 5-[[(1R)-1-[3-(difluoromethyl)-2-methyl-phenyl]ethyl]amino]-1,3,8-trimethyl-imidazo[4,5-g]phthalazin-2-one]", "IC50": 9.77}
{"smiles": "Cc1cc([C@@H](C)Nc2nnc(C)c3cc4c(cc23)n(C)c(=O)n4C)c(C)c(C(F)(F)CO)c1", "note": "[Compound 212, 5-[[(1R)-1-[3-(1,1-difluoro-2-hydroxy-ethyl)-2,5-dimethyl-phenyl]ethyl]amino]-1,3,8-trimethyl-imidazo[4,5-g]phthalazin-2-one]", "IC50": 12.6}
{"smiles": "Cc1c(C(F)F)cccc1[C@@H](C)Nc1nnc(C)c2cc3c(cc12)n(C1CC1)c(=O)n3C", "note": "[Compound 213, 3-cyclopropyl-5-[[(1R)-1-[3-(difluoromethyl)-2-methyl-phenyl]ethyl]amino]-1,8-dimethyl-imidazo[4,5-g]phthalazin-2-one]", "IC50": 11}
